From PMC11788822, “Uncovering the potent antimicrobial activity of squaramide based anionophores – chloride transport and membrane disruption” (Chemical Science, 2025)

Assays:
S. aureus = assay: Growth inhibition assay, S. aureus; format: cell-based, Staphylococcus aureus; settings: Staphylococcus aureus, 24 h, growth (OD 600 nm) relative to control, 37 °C
Procedure: To determine IC50/80 values, growth (optical density) of S. aureus, methicillin-resistant S. aureus (MRSA), P. aeruginosa, and K. pneumoniae when treated with a range of concentrations of each active compound in vitro was measured at 600 nm after a 24 h incubation period at 37 °C. Each compound was studied for activity below […], and those showing little activity above 200 μM, were noted as such, and omitted from further study.
Staphylococcus aureus culture conditions
S. aureus (ATCC33951) was cultured at 37 °C in Nutrient broth (Oxoid), in an orbital shaker at 200 rpm. Stocks were kept on nutrient agar, stored at 4 °C for up to 2 months, or as glycerol stocks (50/50 glycerol:culture), stored at -70 °C indefinitely. […]
(§1) Bacterial cultures were brought to early stationary phase overnight, in nutrient broth (containing 25/50 µg/mL Ampicillin for MRSA/K. pneumoniae, respectively) at 37 °C. Cultures were diluted to an OD600 = 0.01. Aliquots of Culture (100 µl) were added to 100 µL serially diluted compound (200 – 0.78 µM) in nutrient broth in a 96-well plate (Sarstedt, Germany).
Plates were incubated at 37 °C for 24 h and growth was measured at 600 nm, where growth was measured and represented relative to control. […]

[1] = parameters: method as in doi:10.1021/jo01097a026; settings: for the relevant substitution pattern; cited from earlier work
G. mellonella larvae = assay: Galleria mellonella in vivo toxicity; settings: larvae dosed at 10× IC50, monitored over 72 h
Procedure: Next, to assess the medicinal validity of compounds 1, 2, and 4 we investigated the in vivo toxicity of these compounds using the Galleria mellonella model organism. This model has been introduced as an alternative model to study microbial infections as it can be easily and inexpensively obtained and doesn't require specialised lab equipment or impose significant ethical constraints. […] Thus, G. mellonella larvae were dosed with a concentration of each compound at 10× IC50 and monitored for signs of toxicity or death over a 72 hour window.
as §1
Plates were incubated at 37 °C for 24 h and growth was measured at 600 nm, where growth was measured and represented relative to control.
Galleria mellonella toxicity studies
To ascertain inherent compound toxicity, 10 healthy G. mellonella larvae were selected and weighed ensuring to keep larval weight approx. 0.25 g (+ 0.05 g). This constituted one sample set for experiments. […] Larvae were subsequently monitored for up to […], for signs of toxicity, melanisation and death. […]
From an overnight culture brought to stationary phase (OD600 = ~1.0) was taken samples, brought to an OD600 = 0.2, which were treated with N-Ethoxycarbonylmethyl-6-methoxyquinolium Bromide (MQAE) (10 mM) for 1 h at 37 0C. […] 2 mL of samples were taken & transferred to a fluorescence cuvette, whereupon fluorescence was read (λexc = 350 nm (slit width = 5 nm) λem = 460 nm (slit width = 5 nm)) using a Cary Eclipse Fluorescence Spectrophotometer (Agilent Technologies). Subsequently samples were treated with the Compound of interest for 5 mins whereafter fluorescence was measured as previous, with intensity plotted relative to control, […]

[2] = 1H NMR titration with TBACl, Cl− binding; settings: association constant towards Cl−, compound 2.5 mM, 95% DMSO-d6, 1:1 binding model (Bindfit), errors below 10%
Procedure: To verify if 1–6 formed host–guest complexes with Cl^− in solution, ^1H NMR titrations of each compound (2.5 mM) with TBACl were carried out in DMSO-d6. Increasing equivalents of Cl^− were incrementally added, with spectral information obtained upon addition of each molar equivalent of Cl^−. […] Taking 1 as an example (Fig. 2), upon addition of sequential aliquots of Cl^− there is a clear downfield shift of both squaramide NHs, with minor contributions to the binding cleft derived from the ortho-aryl protons of the aniline of 1. The binding data from each titration was fitted to a 1 : 1 binding model using the Bindfit[36] open access software, and the results are tabulated below (Table 1), alongside the respective Hammett constant for the relevant substitution pattern.[37] […] This aligns with previously reported receptors,[38] where compounds containing CF3 substituents in particular are known to have increased anion binding affinity as well as transport ability.[39]

S. aureus cells = assay: MQAE chloride influx assay; format: cell-based, Staphylococcus aureus; settings: 5 min, MQAE fluorescence fitted to Stern–Volmer equation
Procedure: To study this, we utilised N-(ethoxycarbonylmethyl)-6-methoxyquinolinium bromide (MQAE) as a fluorescent reporter for cellular Cl^− levels. MQAE fluorescence is highly sensitive to Cl^− flux, where increased cytosolic Cl^− concentration gives rise to a collisional quenching effect. […] To do this, cells were pre-treated with MQAE and then exposed to varying concentrations of 1, 2 and 4, whereafter MQAE fluorescence was read at T = 5 min, and plotted relative to control (Fig. 3).
Furthermore, using the fluorescence data acquired from these assays, and fitting to the Stern–Volmer equation, we could approximate the increased concentration of Cl^− with respect to basal fluorescence for each of the concentrations studied (Table 3). […]
MQAE chloride influx assay
From an overnight culture brought to stationary phase (OD600 = ~1.0) was taken samples, brought to an OD600 = 0.2, which were treated with N-Ethoxycarbonylmethyl-6-methoxyquinolium Bromide (MQAE) (10 mM) for 1 h at 37 0C. Subsequently, cells were washed with & resuspended in PBS. 2 mL of samples were taken & transferred to a fluorescence cuvette, whereupon fluorescence was read (λexc = 350 nm (slit width = 5 nm) λem = 460 nm (slit width = 5 nm)) using a Cary Eclipse Fluorescence Spectrophotometer (Agilent Technologies). Subsequently samples were treated with the Compound of interest for 5 mins whereafter fluorescence was measured as previous, with intensity plotted relative to control, […]
or measured over the course of 2 hrs, starting at T0 (upon addition of compound).
Alternatively, 200 µL aliquots of cell suspension were added to a 96-well plate, to the desired quantity, and were either untreated (control), or treated with the compound of interest for 5 mins, whereafter fluorescence was read using a BMG Labtech Clariostar Plus platereader, and plotted relative to control. […]
Subsequently, cells were resuspended in 1 mL PBS, and treated with a the respective fluorophore or compound of interest at the specified concentration or […]

O=c1c(Nc2cc(C(F)(F)F)cc(C(F)(F)F)c2)c(NC23CC4CC(CC(C4)C2)C3)c1=O [Compound 1]
IC80 (S. aureus): ~200 µM
IC50 (S. aureus): 0.781 µM
Hammett parameter (σ) [1]: 0.86
signs of toxicity or death (G. mellonella larvae): no appreciable signs of acute/chronic toxicity
K a [2]: 235 M⁻¹
Increase in chloride concentration from basal level [Clθ] (mM) (S. aureus cells; 10 μM compound): +0.31 (±0.02) mM
Increase in chloride concentration from basal level [Clθ] (mM) (S. aureus cells; 50 μM compound): +1.44 (±0.16) mM
Increase in chloride concentration from basal level [Clθ] (mM) (S. aureus cells; 100 μM compound): +4.22 (±2.01) mM
Increase in chloride concentration from basal level [Clθ] (mM) (S. aureus cells; 200 μM compound): +13.31 (±3.05) mM

O=c1c(Nc2ccc(Cl)c(Cl)c2)c(NC23CC4CC(CC(C4)C2)C3)c1=O [Compound 2]
IC80 (S. aureus): 250 µM
IC50 (S. aureus): 62.5 µM
Hammett parameter (σ) [1]: 0.6
signs of toxicity or death (G. mellonella larvae): no appreciable signs of acute/chronic toxicity
K a [2]: 263 M⁻¹
Increase in chloride concentration from basal level [Clθ] (mM) (S. aureus cells; 10 μM compound): +0.21 (±0.02) mM
Increase in chloride concentration from basal level [Clθ] (mM) (S. aureus cells; 50 μM compound): +1.53 (±0.07) mM
Increase in chloride concentration from basal level [Clθ] (mM) (S. aureus cells; 100 μM compound): +2.91 (±0.02) mM
Increase in chloride concentration from basal level [Clθ] (mM) (S. aureus cells; 200 μM compound): +5.49 (±0.01) mM

O=c1c(Nc2ccc([N+](=O)[O-])cc2)c(NC23CC4CC(CC(C4)C2)C3)c1=O [Compound 4]
IC50 (S. aureus): 170 µM
Hammett parameter (σ) [1]: 0.78
signs of toxicity or death (G. mellonella larvae): no appreciable signs of acute/chronic toxicity
K a [2]: 202 M⁻¹
Increase in chloride concentration from basal level [Clθ] (mM) (S. aureus cells; 10 μM compound): +0.61 (±0.07) mM
Increase in chloride concentration from basal level [Clθ] (mM) (S. aureus cells; 50 μM compound): +1.74 (±0.02) mM
Increase in chloride concentration from basal level [Clθ] (mM) (S. aureus cells; 100 μM compound): +3.57 (±0.18) mM
Increase in chloride concentration from basal level [Clθ] (mM) (S. aureus cells; 200 μM compound): +10.19 (±0.08) mM
